Assay results reported in patent publication US12055546B2, “Fluorescent probe for detecting carboxypeptidase activity” (THE UNIVERSITY OF TOKYO, priority 2018, dated 2024).

Experiments:
[1] = Absorption/fluorescence spectrum measurement; type: physicochemical; details: for Absorption maximum (nm) / Fluorescence maximum (nm) / Quantum yield: 200 mM phosphate buffer (pH 7.4); for Fluorescence under physiological conditions: as compared to fluorescein
Procedure: The absorption spectrum was measured using UV-2450 (SIMADZU), and the fluorescence spectrum was measured using F-7000 (HITACHI).
FIG. 9 and FIG. 10 illustrate the results of the absorption/fluorescence spectrum measurement of 2Me5GluAF-TG (Compound 32). […] The absorption spectrum was measured using UV-2450 (SIMADZU), and the fluorescence spectrum was measured using F-7000 (HITACHI).

carboxypeptidase A (CPA) = biological target: T1, carboxypeptidase A (CPA) (Homo sapiens, UniProt P15085); experiment: Enzyme assay with CPA; type: biochemical
T1 sequence (P15085 111-419): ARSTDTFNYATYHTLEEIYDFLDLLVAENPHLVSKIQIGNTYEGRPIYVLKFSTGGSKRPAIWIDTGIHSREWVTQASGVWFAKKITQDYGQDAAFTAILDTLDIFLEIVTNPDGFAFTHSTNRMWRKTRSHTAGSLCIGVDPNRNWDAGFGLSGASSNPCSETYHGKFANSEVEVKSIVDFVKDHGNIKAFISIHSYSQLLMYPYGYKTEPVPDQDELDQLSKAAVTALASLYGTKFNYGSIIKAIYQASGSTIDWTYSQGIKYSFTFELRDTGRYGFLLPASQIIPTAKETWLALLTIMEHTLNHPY
Procedure: • (1) First to third solutions prepared by dissolving 10 μM probe in 600 μL of each assay buffer were provided. • (Assay buffer: Tris-buffered saline (TBS)) (2) 2 μg of CPA was activated with 18 μL of 5 ng/mL trypsine solution for 1 hour • (3) 9 μL of the solution in (2) was added to the solution in (1), and the mixture was incubated at 37° C. for 5 hours. For one of the solutions, a CPA specific inhibitor; potato carboxypeptidase inhibitor (final concentration 10 μg/mL) was also added at the same time and incubated at 37° C. for 5 hours. • (4) 200 μL of each solution after the incubation in (3) was diluted to 2800 μL with 200 mM Na-Pi […], and the fluorescence spectrum was measured.

[2] = tested on: Cc1ccc(/N=N/C(=O)N[C@@H](CCC(=O)O)C(=O)O)cc1-c1c2ccc(=O)cc-2oc2cc(O)ccc12; experiment: Reactivity with PSMA purified enzyme (Example 6); type: biochemical, human; details: other: apparent dynamic parameter, PSMA added to various probe concentrations, Table 4; 37.0 °C
PSMA [3] = biological target: T2, PSMA (Homo sapiens, UniProt Q04609); experiment: Enzyme assay with PSMA (Example 2), fluorescence spectrum and Michaelis-Menten plot; type: biochemical; details: for Fluorescence rise due to enzymatic reaction with PSMA: 10 μM probe, 0.44 μg PSMA, 37° C., 15 hours
T2 sequence (Q04609 whole entry): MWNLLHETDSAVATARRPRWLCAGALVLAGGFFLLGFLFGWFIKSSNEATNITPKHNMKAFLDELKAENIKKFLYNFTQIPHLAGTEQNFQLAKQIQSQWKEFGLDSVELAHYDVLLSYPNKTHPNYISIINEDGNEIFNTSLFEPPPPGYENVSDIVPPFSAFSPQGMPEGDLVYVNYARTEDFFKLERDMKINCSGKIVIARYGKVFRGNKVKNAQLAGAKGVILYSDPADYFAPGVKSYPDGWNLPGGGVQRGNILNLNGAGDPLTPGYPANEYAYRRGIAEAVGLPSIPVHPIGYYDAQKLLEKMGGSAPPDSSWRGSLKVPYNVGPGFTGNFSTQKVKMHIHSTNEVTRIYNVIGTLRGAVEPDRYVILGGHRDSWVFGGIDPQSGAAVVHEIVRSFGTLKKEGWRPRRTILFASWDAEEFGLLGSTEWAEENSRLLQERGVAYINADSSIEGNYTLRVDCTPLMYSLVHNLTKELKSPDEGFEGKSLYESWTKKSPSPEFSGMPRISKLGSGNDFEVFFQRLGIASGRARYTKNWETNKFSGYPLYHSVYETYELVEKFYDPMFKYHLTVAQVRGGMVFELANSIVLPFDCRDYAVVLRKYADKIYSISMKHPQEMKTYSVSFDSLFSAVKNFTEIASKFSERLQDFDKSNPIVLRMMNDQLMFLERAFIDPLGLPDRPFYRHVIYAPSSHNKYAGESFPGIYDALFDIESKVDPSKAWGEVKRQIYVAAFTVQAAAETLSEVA
Procedure: A change in the fluorescence spectrum due to the enzymatic reaction was measured as follows. The reactivity of 6-fluAFGlu to PSMA was evaluated by creating a Michaelis-Menten plot. • (1) Two solutions prepared by dissolving 10 μM probe in 200 μL of each assay buffer were provided. • (Assay buffer: 50 mM HEPES, 100 mM NaCl, pH 7.5) • (2) 0.44 μg of PSMA was added to each and incubated at 37° C. for 15 hours. For one of the solutions, a PSMA specific inhibitor 2-(Phosphonomethyl)-pentandioic acid (2-PMPA) (final concentration 10 μM) was also added at the same time and incubated at 37° C. for 15 hours. • (3) Each solution after the incubation in (2) was diluted to 2800 μL with 200 mM Na-Pi buffer, and the fluorescence spectrum was measured.
FIG. 1 illustrates the fluorescence spectrum of 5-fluAFGlu and 6-fluAFGlu after addition of PSMA and an inhibitor (2-PMPA, 10 μM) (S/N to 417 at 516 nm).

PSMA [4] = biological target: T2, PSMA; experiment: Reactivity with PSMA purified enzyme (Example 6); type: biochemical
[5] = tested on: LNCaP cell lysate (PSMA expressing prostate cancer cell); experiment: Cell lysate assay, LNCaP; type: biochemical; details: probe 10 μM, 37° C.; for Increase in fluorescence in LNCaP cell lysate with inhibitor: 2-PMPA 10 μM
Procedure: (§1) A PSMA specific inhibitor 2-PMPA (10 μM) was added to one of LNCaP cell lysate samples at the same time, and measurement was performed. • (2) The obtained fluorescence intensity of each lysate was normalized based on 0 minutes being set to 1, and then plot was performed with the incubation time on the horizontal axis.
(§2) A solution (20 μM, 100 μL) of 2Me5GluAF-TG (Compound 32) and a cell lysate (0.36 mg/mL, 100 μL) were reacted in TBS-T buffer at 37° C., and the fluorescence intensity was measured every 30 minutes. The measurement procedure is as described in Example 3.
(§3) Ex/em: 485/535 nm, n=3, probe final concentration: 10 μM, inhibitor (2-PMPA) concentration: 10 μM

[6] = tested on: PC3 cell lysate (PSMA non-expressing prostate cancer cell); experiment: Cell lysate assay, PC3; type: biochemical; details: probe 10 μM, 37° C.
Procedure: as §1, §2, §3

[7] = tested on: LNCaP (PSMA expressing cell); experiment: Live cell assay on 96-well plate (plate reader); type: cell-based
Procedure: LNCaP as a PSMA expressing cell and PC3 as a PSMA non-expressing cell were cultured on a 96-well plate, a 10 μM aqueous solution of 6-fluAFGlu (Compound 25) was added thereto, and the cells were observed over time.

[8] = tested on: LNCaP cells (high PSMA expression); experiment: Live cell imaging, LNCaP cells (confocal microscope); type: cell-based
Procedure: (§4) A solution (final concentration: 10 μM) of 2Me5GluAF-TG (Compound 32) diluted with HBSS(+) was added to LNCaP cells (high PSMA expression) or PC3 cells (PSMA non-expression), and a fluorescence image was taken by a confocal microscope every 1 hour under the following conditions while culturing at 37° C. and 5% CO2.
A probe (2Me5GluAF-TG) and an inhibitor were added, and after culturing at 37° C. and 5% CO2 for 15 hours, a fluorescence image was taken with a confocal microscope. Probe concentration: 10 μM, inhibitor (2-PMPA) concentration: 10 μM, Ex/em: 490/500-600 nm, Scale bar: 50 μm.
Ten intracellular regions and ten extracellular regions were each surrounded by ROI, and an average value of the fluorescence intensity was calculated. FIG. 18a illustrates the taken fluorescence image, and FIG. 18b illustrates the average value of the fluorescence intensity with and without addition of the inhibitor.

[9] = tested on: PC3 cells (PSMA non-expression); experiment: Live cell imaging, PC3 cells (confocal microscope); type: cell-based; details: probe 10 μM in HBSS(+), image every 1 hour
Procedure: as §4

PSMA [10] = biological target: T2, PSMA; experiment: LC-UV/MS analysis of PSMA reaction solution; type: biochemical; details: 10 hours
Procedure: A solution, prepared after recombinant human PSMA and 2Me5GluAF-TG (Compound 32) were reacted for 10 hours, and 2Me5GluAF-TG and 2MeTG synthesized as preparations were subjected to LC-UV/MS analysis.
Probe concentration: 10 μM (2Me5GluAF-TG, enzyme reaction solution), 2 μM (2MeTG). The results are illustrated in FIG. 13 and FIG. 14.

LNCaP cells = experiment: LC-UV/MS analysis of extracellular fluid after LNCaP imaging; type: cell-based
Procedure: After imaging of LNCaP cells using 2Me5GluAF-TG, a collected extracellular fluid, and 2Me5GluAF-TG and 2MeTG synthesized as preparations were subjected to the LC-MS analysis under the following conditions.
Probe concentration: 10 μM (2Me5GluAF-TG, extracellular fluid), 2 μM (2MeTG).

[11] = tested on: human prostate cancer surgical specimen; experiment: Study using human prostate cancer surgical specimen; details: 2.50 μM probe solution in 1×TBS, 40° C., up to 4 hours
Procedure: • 1. Wash surgical specimen with 1×TBS buffer • 2. Add dropwise 2.50 μM of 2Me5GluAF-TG solution (diluted with 1×TBS buffer) so that the whole specimen is immersed. • 3. While heating to 40° C. with a heater, take a fluorescence image by Maestro for up to 4 hours • 4. Judge from the fluorescence image taken 4 hours after immersion, select and cut out several sites showing bright fluorescence and several sites showing no fluorescence, and fix with a 10% formalin solution • 5. Request a pathologist to perform HE staining/PSMA immunostaining on each site and evaluate a rate of cancer sites and PSMA expression
The results of using four types of specimens are illustrated in FIG. 21 to FIG. 24. FIG. 25 illustrates a result obtained by changing the above protocol (changing a method so that a surface is covered with gauze soaked in a probe solution, temporarily removing the gauze, and taking a fluorescence image). • (a) of each figure illustrates a photograph before immersion of the surgical specimen in a Me5GluAF-TG solution and a photograph taken 4 hours after the immersion (the right side is a fluorescence image). The graph on the left side of (b) illustrates a change in fluorescence intensity at a selected site of the surgical specimen from the immersion in the Me5GluAF-TG solution to 4 hours after the immersion. […]

[12] = apparent dynamic parameter with PSMA, Table 2

Compound: O=C(N=Nc1ccc(C(=O)O)c(-c2c3ccc(=O)cc-3oc3cc(O)ccc23)c1)NC(Cc1ccccc1)C(=O)O (centres unmarked) [Compound 6-fluAFPhe]
- Absorption maximum (nm) [1]: 494 nm
- Fluorescence maximum (nm) [1]: 519 nm
- Quantum yield [1]: 0.025
- Fluorescence under physiological conditions [1]: almost no fluorescencence
- Fluorescence rise due to enzymatic reaction with CPA (carboxypeptidase A (CPA); 10 μM probe, 37° C., 5 hours): the fluorescence rise due to the enzymatic reaction was observed
- S/N of fluorescence spectrum after addition of CPA1 and inhibitor (carboxypeptidase A (CPA); at 517 nm, potato carboxypeptidase inhibitor, 10 μM): ~13

Compound: recombinant human PSMA (Homo sapiens)
- Km [2]: 4.3 µM
- kcat [2]: 0.066 s⁻¹
- kcat/Km [2]: 15300 M⁻¹ s⁻¹

Compound: O=C(O)CCC(NC(=O)N=Nc1ccc(C(=O)O)c(-c2c3ccc(=O)cc-3oc3cc(O)ccc23)c1)C(=O)O (centres unmarked) [Compound 6-fluAFGlu]
- Absorption maximum (nm) [1]: 494 nm
- Fluorescence maximum (nm) [1]: 526 nm
- Quantum yield [1]: 0.002
- Fluorescence under physiological conditions [1]: almost no fluorescencence
- Fluorescence rise due to enzymatic reaction with PSMA (PSMA [3]): a fluorescence rise due to an enzymatic reaction was observed
- Km (PSMA [3]; [12]): 2.4 µM
- kcat (PSMA [3]; [12]): 0.00055 s⁻¹
- S/N of fluorescence spectrum after addition of PSMA and inhibitor (PSMA [3]; at 516 nm, inhibitor 2-PMPA 10 μM): ~417
- Km (PSMA [4]; apparent dynamic parameter, PSMA added to various probe concentrations, Table 4): 5 µM
- kcat (PSMA [4]; apparent dynamic parameter, Table 4): 0.001 s⁻¹
- Increase in fluorescence in LNCaP cell lysate with inhibitor [5]: almost no increase in fluorescence was observed
- Increase in fluorescence in LNCaP cell lysate [5]: a significant increase in fluorescence was observed
- Increase in fluorescence in PC3 cell lysate [6]: almost no increase in fluorescence was observed
- Increase in fluorescence intensity in live LNCaP cells ([7]; 10 μM probe in TBS, compared to PC3): a significant increase in fluorescence intensity was observed in LNCaP compared to PC3
- Increase in fluorescence in live LNCaP cells with inhibitor ([7]; 10 μM probe, 2-PMPA 10 μM): significantly suppressed

Compound: Cc1ccc(/N=N/C(=O)N[C@@H](CCC(=O)O)C(=O)O)cc1-c1c2ccc(=O)cc-2oc2cc(O)ccc12 [Compound 2Me5GluAF-TG]
- Φfl ([1]; 0.2M phosphate buffer (pH 7.4)): 0.002
- λabs (nm) ([1]; Table 3): 495 nm
- λem (nm) ([1]; Table 3): 516 nm
- Fluorescence under physiological conditions [1]: almost no fluorescencence
- Increase in fluorescence with PSMA (PSMA [4]; 10 μM probe, 0.44 μg PSMA, 1×TBS, 37° C.): the increase in fluorescence due to the enzymatic reaction was observed
- Increase in fluorescence with PSMA in presence of inhibitor (PSMA [4]; inhibitor 2-PMPA 10 μM): No increase in fluorescence was observed
- Increase in fluorescence in LNCaP cell lysate with inhibitor [5]: almost no increase in fluorescence was observed
- Increase in fluorescence in LNCaP cell lysate [5]: a significant increase in fluorescence was observed
- Increase in fluorescence in PC3 cell lysate [6]: almost no increase in fluorescence was observed
- Fluorescence image intensity in LNCaP cells ([8]; probe 10 μM in HBSS(+), image every 1 hour): the fluorescence intensity of the fluorescence image increased with the passage of time
- Fluorescence image intensity with inhibitor ([8]; probe 10 μM, 2-PMPA 10 μM, 15 hours): the intensity of the fluorescence image does not increase
- Average fluorescence intensity inside versus outside the cell ([8]; probe 10 μM, no inhibitor, 15 hours): the average value of the fluorescence intensity inside the cell is much higher than that outside the cell
- Fluorescence image in PC3 cells [9]: no change was observed in the fluorescence image
- Stability of the probe (LC-UV/MS) (PSMA [10]; inhibitor (2-PMPA) added or absence of PSMA): stable
- Products of the reaction with PSMA (LC-UV/MS) (PSMA [10]; probe 10 μM, in the presence of PSMA): 2MeTG and 2Me5OH-TG exhibiting fluorescence in the presence of PSMA were produced
- Product in extracellular fluid (LC-MS) (LNCaP cells; absence of the inhibitor (2-PMPA)): production of fluorescent 2MeTG was confirmed
- Stability of the probe in extracellular fluid (LC-MS) (LNCaP cells; inhibitor added): stable
- Relation of fluorescence increase to cancer site / PSMA expression [11]: a rough correlation between the increase in fluorescence intensity and the presence or absence of the cancer site or a PSMA expression level

Compound: O=C(O)CCC(NC(=O)N=Nc1ccc2c(c1)C(=O)OC21c2ccc(O)cc2Oc2cc(O)ccc21)C(=O)O (centres unmarked) [Compound 5-fluAFGlu]
- Absorption maximum (nm) [1]: 494 nm
- Fluorescence maximum (nm) [1]: 521 nm
- Quantum yield [1]: 0.003
- Fluorescence under physiological conditions [1]: almost no fluorescencence
- Fluorescence rise due to enzymatic reaction with PSMA (PSMA [3]): only in 6-fluAFGlu
